According to the NIST ThermoML archive (doi:10.1021/je0301794):

How the values were obtained:
[1] = xn = mol fraction of the nth substance listed; details: 101.3 kPa, Liquid
[2] = excess molar enthalpy (molar enthalpy of mixing); xn = mol fraction of the nth substance listed; details: 318.15 K, 101.3 kPa, Liquid

COC(=O)OC [dimethyl carbonate] + CCCCCCCC
[1]
Details | mass density [kg/m3]
293.15 K, x1 = 0.0513 | 711.1
293.15 K, x1 = 0.0997 | 719.8
293.15 K, x1 = 0.2027 | 740.5
293.15 K, x1 = 0.3063 | 764.5
293.15 K, x1 = 0.3994 | 789.1
293.15 K, x1 = 0.5123 | 823.6
293.15 K, x1 = 0.6078 | 857.4
293.15 K, x1 = 0.7137 | 901.2
293.15 K, x1 = 0.8055 | 945.8
293.15 K, x1 = 0.9061 | 1004
293.15 K, x1 = 0.9516 | 1034.3
293.15 K, x1 = 1 | 1070
298.15 K, x1 = 0.0558 | 707.8
298.15 K, x1 = 0.096 | 715
298.15 K, x1 = 0.1488 | 725.1
298.15 K, x1 = 0.2289 | 741.8
298.15 K, x1 = 0.2947 | 756.9
298.15 K, x1 = 0.4216 | 790.4
298.15 K, x1 = 0.4883 | 810.6
298.15 K, x1 = 0.4968 | 813.3
298.15 K, x1 = 0.5931 | 846.6
298.15 K, x1 = 0.6867 | 884.1
298.15 K, x1 = 0.7879 | 931.6
298.15 K, x1 = 0.8873 | 987.1
298.15 K, x1 = 0.9502 | 1027.7
298.15 K, x1 = 1 | 1063.5
303.15 K, x1 = 0.0519 | 702.9
303.15 K, x1 = 0.0827 | 708.3
303.15 K, x1 = 0.1947 | 729.9
303.15 K, x1 = 0.2829 | 749.4
303.15 K, x1 = 0.3948 | 778.1
303.15 K, x1 = 0.4942 | 807.5
303.15 K, x1 = 0.5964 | 842.4
303.15 K, x1 = 0.6983 | 883.1
303.15 K, x1 = 0.7886 | 925.2
303.15 K, x1 = 0.8946 | 984.3
303.15 K, x1 = 0.9545 | 1023.4
303.15 K, x1 = 1 | 1056.5
313.15 K, x1 = 0.0512 | 694.5
313.15 K, x1 = 0.1005 | 703
313.15 K, x1 = 0.186 | 719.2
313.15 K, x1 = 0.301 | 744.5
313.15 K, x1 = 0.4072 | 771.6
313.15 K, x1 = 0.5002 | 799.1
313.15 K, x1 = 0.6042 | 834.5
313.15 K, x1 = 0.709 | 876.3
313.15 K, x1 = 0.7993 | 918.8
313.15 K, x1 = 0.8465 | 944
313.15 K, x1 = 0.9524 | 1009.1
313.15 K, x1 = 1 | 1043.4
318.15 K, x1 = 0.0823 | 695.4
318.15 K, x1 = 0.1827 | 714.2
318.15 K, x1 = 0.2965 | 738.7
318.15 K, x1 = 0.3626 | 754.9
318.15 K, x1 = 0.436 | 774.6
318.15 K, x1 = 0.5156 | 798.6
318.15 K, x1 = 0.5606 | 813.4
318.15 K, x1 = 0.6305 | 838.7
318.15 K, x1 = 0.6756 | 856.4
318.15 K, x1 = 0.7428 | 885.6
318.15 K, x1 = 0.7845 | 905.6
318.15 K, x1 = 0.8233 | 925.5
318.15 K, x1 = 0.8711 | 951.7
318.15 K, x1 = 0.9071 | 973.5
318.15 K, x1 = 0.964 | 1010.8
318.15 K, x1 = 0.9761 | 1019.5
318.15 K, x1 = 1 | 1036.9

[2]
Details | excess molar enthalpy [kcal/mol]
x1 = 0.0844 | 0.164
x1 = 0.1746 | 0.299
x1 = 0.2622 | 0.403
x1 = 0.3463 | 0.475
x1 = 0.4232 | 0.514
x1 = 0.4922 | 0.528
x1 = 0.5544 | 0.528
x1 = 0.6104 | 0.516
x1 = 0.6455 | 0.504
x1 = 0.683 | 0.488
x1 = 0.7224 | 0.461
x1 = 0.7671 | 0.419
x1 = 0.8115 | 0.368
x1 = 0.8562 | 0.307
x1 = 0.8987 | 0.238
x1 = 0.9358 | 0.167
x1 = 0.9713 | 0.0834
x1 = 1 | 0

CCCCCCCCCC [decane] + COC(=O)OC
[1]
Details | mass density [kg/m3]
298.15 K, x2 = 0 | 726.2
298.15 K, x2 = 0.0043 | 726.8
298.15 K, x2 = 0.0235 | 729.1
298.15 K, x2 = 0.0888 | 737.6
298.15 K, x2 = 0.1363 | 744.6
298.15 K, x2 = 0.1922 | 753.4
298.15 K, x2 = 0.2402 | 761.6
298.15 K, x2 = 0.3348 | 779.8
298.15 K, x2 = 0.4201 | 798.8
298.15 K, x2 = 0.4876 | 816
298.15 K, x2 = 0.5607 | 837.1
298.15 K, x2 = 0.6214 | 856.8
298.15 K, x2 = 0.6754 | 876.5
298.15 K, x2 = 0.7219 | 895.2
298.15 K, x2 = 0.7702 | 916.6
298.15 K, x2 = 0.8104 | 936.3
298.15 K, x2 = 0.8421 | 953.4
298.15 K, x2 = 0.8849 | 978.5
298.15 K, x2 = 0.9135 | 997
298.15 K, x2 = 0.9424 | 1017.3
298.15 K, x2 = 0.9709 | 1039
303.15 K, x2 = 0 | 722.3
303.15 K, x2 = 0.0489 | 728.4
303.15 K, x2 = 0.0996 | 735.2
303.15 K, x2 = 0.1998 | 750.3
303.15 K, x2 = 0.299 | 768.1
303.15 K, x2 = 0.3991 | 789.2
303.15 K, x2 = 0.4992 | 814.3
303.15 K, x2 = 0.6023 | 845.3
303.15 K, x2 = 0.7013 | 881.5
303.15 K, x2 = 0.8008 | 925.9
303.15 K, x2 = 0.9012 | 982.6
303.15 K, x2 = 0.9505 | 1016.6
313.15 K, x2 = 0 | 714.7
313.15 K, x2 = 0.0489 | 720.6
313.15 K, x2 = 0.0996 | 727.2
313.15 K, x2 = 0.1998 | 742
313.15 K, x2 = 0.299 | 759.4
313.15 K, x2 = 0.3991 | 780.1
313.15 K, x2 = 0.4992 | 804.7
313.15 K, x2 = 0.6023 | 835.2
313.15 K, x2 = 0.7013 | 870.6
313.15 K, x2 = 0.8008 | 914.4
313.15 K, x2 = 0.9012 | 970.3
313.15 K, x2 = 0.9505 | 1003.6
318.15 K, x2 = 0 | 710.9
318.15 K, x2 = 0.0902 | 722.1
318.15 K, x2 = 0.1142 | 725.4
318.15 K, x2 = 0.1922 | 736.9
318.15 K, x2 = 0.3283 | 760.8
318.15 K, x2 = 0.4184 | 780
318.15 K, x2 = 0.4855 | 796.3
318.15 K, x2 = 0.4962 | 799.1
318.15 K, x2 = 0.5666 | 818.8
318.15 K, x2 = 0.6142 | 833.9
318.15 K, x2 = 0.6732 | 854.3
318.15 K, x2 = 0.728 | 875.8
318.15 K, x2 = 0.7735 | 895.6
318.15 K, x2 = 0.8087 | 912.6
318.15 K, x2 = 0.8503 | 934.4
318.15 K, x2 = 0.8944 | 960.1
318.15 K, x2 = 0.9252 | 980
318.15 K, x2 = 0.9473 | 995.6
318.15 K, x2 = 0.9768 | 1017.9

[2]
Details | excess molar enthalpy [kcal/mol]
x2 = 0 | 0
x2 = 0.0948 | 0.19
x2 = 0.1964 | 0.341
x2 = 0.29 | 0.453
x2 = 0.3757 | 0.524
x2 = 0.4516 | 0.561
x2 = 0.5089 | 0.572
x2 = 0.5556 | 0.573
x2 = 0.5944 | 0.568
x2 = 0.6291 | 0.56
x2 = 0.6358 | 0.556
x2 = 0.6748 | 0.539
x2 = 0.7141 | 0.518
x2 = 0.7558 | 0.484
x2 = 0.7914 | 0.445
x2 = 0.8294 | 0.393
x2 = 0.8725 | 0.33
x2 = 0.9085 | 0.255
x2 = 0.9429 | 0.174
x2 = 0.9788 | 0.0741
